57 molecules from US20030229066A1, “Novel heterocyclic urea derivatives and their use as dopamine D3 receptor ligands” (priority 2001, published 2003) can be followed below.

For this assay, the target named is T1, cloned human dopamine D3 receptors (Homo sapiens, UniProt P35462).
T1 construct: expressed in transfected cells
T1 sequence (P35462 whole entry): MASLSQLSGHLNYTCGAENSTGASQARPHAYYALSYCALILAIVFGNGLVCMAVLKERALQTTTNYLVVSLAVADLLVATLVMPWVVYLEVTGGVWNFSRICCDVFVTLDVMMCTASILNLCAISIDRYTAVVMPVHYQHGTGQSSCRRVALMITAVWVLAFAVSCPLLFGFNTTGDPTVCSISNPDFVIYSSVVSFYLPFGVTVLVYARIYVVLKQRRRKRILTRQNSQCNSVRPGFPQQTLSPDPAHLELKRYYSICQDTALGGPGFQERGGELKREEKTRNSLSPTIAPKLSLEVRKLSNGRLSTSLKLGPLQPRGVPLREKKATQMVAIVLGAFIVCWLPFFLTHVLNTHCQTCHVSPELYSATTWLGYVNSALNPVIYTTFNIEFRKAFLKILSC
In words: [N-Methyl-3H]Spiroperidol binding to cloned human dopamine D3 receptors. From the text: [N-Methyl-^3H]Spiroperidol Binding to Cloned Human Dopamine D3 Receptors
This assay measures the in vitro activity of compounds on cloned human dopamine (D3) receptors and predicts the direct dopamine-blocking properties of putative neuropsychiatric agents at human dopamine D3 receptors.
The D3 gene was isolated from a human striatal cDNA library (Stratagene). The gene was sequenced and sub-cloned into the expression vector RC/RSV (Invitrogen). CHO (Chinese Hamster Ovary) cells were stably transfected with 10 μg of the D3/RSV plasmid using the DOTAP method from Boehringer Mannheim and 72 clones that were G418 resistant were isolated. Using mRNA and binding displacement data a single high expressing clone was identified. This clone was then grown in large batches for the purpose of developing a 96 well format assay.
The cells are harvested into 250 ml centrifuge tubes with 100 volumes of cold phosphate buffered saline (PBS) and spun down (1200×G for 10 min at 4° C.). The medium is removed and 100 ml PBS are added to each centrifuge tube, cells are resuspened and spun down again. The PBS is removed and the final pellet is homogenized in an appropriate volume of 10% DMSO with a polytron on ice at a medium setting.
For Kj determinations: [^3H]NMSP is made up to a concentration of 2.7 nM in buffer 2b, such that when 150 μl is added to each tube a final concentration of 0.4 nM is attained in the 1 ml assay. Samples of total CPM added are taken for each experiment to calculate the total ligand concentration.
5. S(-)-Eticlopride is obtained from Research Biochemicals International (RBI catalog number E-101). A refrigerated stock (good for up to a month) solution of S(-)-eticlopride is made at a concentration of 30 μM in buffer 2b. One hundred microliters are added to 3 wells for the determination of nonspecific binding (this yields a final concentration of 3 μM in the 1 ml assay).
For most assays, a 100 μM stock solution of the test compound is made up in a suitable solvent (usually <0.1% acetic acid) and serially diluted with buffer 2b, such that when 100 μl of drug is combined with the total 1 ml assay, final concentrations ranging from 10^−5-10^−8 M are attained. Characteristically eight concentrations are studied for each assay; however, higher or lower concentrations may be used, depending on the potency of the drug.
The 96-Well Packard Unifilters GF/B are incubated for >1 h at 25° C. in 0.1% polyethylamine (from 3,b). The cold tissue is added last and mixed on a orbital shaker for a few seconds and is then incubated at 37° C. for 30 min in a shaking water bath. The assay is stopped by rapid filtration through Packard Unifilter plates. The filter membranes are then washed with 15 ml of ice-cold 0.05 M Tris buffer. The filters are then dried (˜15 min under a heat lamp or incubated for 15 min in a 60° C. oven) and a bottom seal is applied. Then 40 μl of Packard Microscint 20 scintillation cocktail is added and a permanent topseal (Type P) is applied and heat sealed. The plates are then shaken on an orbital shaker for 1 h and placed in the Packard Topcount and counted for at least 5 minutes for each point.
Specific binding is defined as the difference between total binding and the binding in the presence of 3 μM S-(-)-eticlopride. Total binding is approximately 10% of the total added ligand. Cheng-Prusoff determination (Kj's) are performed using Prism software using a one-site competition curve analysis where the top and the bottom of the non-linear regression are held constant at 0% and 100% percent inhibition. The percent inhibition at each drug concentration is the mean of duplicate determinations.
As for `CC(C)c1ccc(NC(=O)NCCCCN2CCCN(c3csc4cc(F)ccc34)CC2)cc1` [compound 829207], the affinity corresponds to a Ki of 141 nM. That is a sub-micromolar value.

On to `COc1cc(NC(=O)NCCCCN2CCCN(c3csc4cc(F)ccc34)CC2)cc(OC)c1OC` [compound 829210], for which affinity was put at a Ki of 1.99 nM.

`O=C(NCCCCN1CCCN(c2csc3cc(F)ccc23)CC1)Nc1cc(C(F)(F)F)ccc1F` [compound 829211]: the affinity corresponds to a Ki of 16 nM.

Turning to `O=C(NCCCCN1CCCN(c2csc3cc(F)ccc23)CC1)Nc1c(F)cccc1C(F)(F)F` [compound 829212], the affinity, expressed as Ki, was 49.9 nM.

On to `O=C(NCCCCN1CCCN(c2csc3cc(F)ccc23)CC1)Nc1ccc(F)c(C(F)(F)F)c1` [compound 829213], for which the affinity corresponds to a Ki of 181 nM.

Consider `O=C(NCCCCN1CCCN(c2csc3cc(F)ccc23)CC1)Nc1ccc(Cl)cc1` [compound 829214], for which the Ki (commonly the equilibrium dissociation constant of an inhibitor or competing ligand from its target) worked out at 14.1 nM.

The molecule `O=C(NCCCCN1CCCN(c2csc3cc(F)ccc23)CC1)Nc1ccc(F)cc1` [compound 829215] showed a Ki of 6.59 nM.

In turn, `O=C(NCCCCN1CCCN(c2csc3cc(F)ccc23)CC1)Nc1ccccc1F` [compound 829216] came in with a Ki of 0.178 nM.

On to `O=C(NCCCCN1CCCN(c2csc3cc(F)ccc23)CC1)Nc1cccc(F)c1` [compound 829217], for which the affinity corresponds to a Ki of 3.51 nM.

Regarding `O=C(NCCCCN1CCCN(c2csc3cc(F)ccc23)CC1)Nc1cccc(C(F)(F)F)c1` [compound 829218], the affinity, expressed as Ki, was 0.165 nM.

`COc1ccc(NC(=O)NCCCCN2CCCN(c3csc4cc(F)ccc34)CC2)cc1` [compound 829219] returned a Ki of 0.0926 nM.

`O=C(NCCCCN1CCCN(c2csc3cc(F)ccc23)CC1)Nc1ccc(Br)cc1` [compound 829220]: affinity was put at a Ki of 18.1 nM.

`COc1cccc(NC(=O)NCCCCN2CCCN(c3csc4cc(F)ccc34)CC2)c1` [compound 829221]: the inhibitory constant (Ki) came to 0.0961 nM.

As to `Cc1cccc(NC(=O)NCCCCN2CCN(c3noc4ccsc34)CC2)c1` [compound 829369], the inhibition constant (Ki) came to 44.2 nM.

`O=C(NCCCCN1CCN(c2noc3ccsc23)CC1)Nc1cccc(Cl)c1` [compound 829370] displayed an inhibition constant (Ki) of 4.91 nM.

Turning to `O=C(NCCCCN1CCN(c2noc3ccsc23)CC1)Nc1ccc(F)cc1F` [compound 829371], the inhibition constant Ki came out at 55.2 nM.

Molecule `O=C(NCCCCN1CCN(c2noc3ccsc23)CC1)Nc1ccc(C(F)(F)F)cc1` [compound 829372] registered an inhibition constant Ki of 31.9 nM.

Take `O=C(NCCCCN1CCN(c2noc3ccsc23)CC1)Nc1cccc(Br)c1` [compound 829373]: the Ki worked out at 14.9 nM.

Turning to `O=C(NCCCCN1CCN(c2noc3ccsc23)CC1)Nc1ccc(OC(F)(F)F)cc1` [compound 829374], the inhibition constant Ki worked out at 103 nM.

Turning to `O=C(NCCCCN1CCN(c2noc3ccsc23)CC1)Nc1cc(C(F)(F)F)cc(C(F)(F)F)c1` [compound 829375], the inhibition constant Ki was found to be 176 nM.

Turning to `O=C(NCCCCN1CCN(c2noc3ccsc23)CC1)Nc1cc(F)ccc1F` [compound 829377], the inhibitory constant (Ki) came out at 87.9 nM. This Ki lies about 2-fold lower than the previous one.

For the molecule `O=C(NCCCCN1CCN(c2noc3ccsc23)CC1)Nc1cc(Cl)cc(Cl)c1` [compound 829378], the inhibition constant Ki turned out to be 184 nM.

The molecule `CSc1ccc(NC(=O)NCCCCN2CCN(c3noc4ccsc34)CC2)cc1` [compound 829379] returned a Ki of 54.9 nM.

Regarding `Cc1ccc(NC(=O)NCCCCN2CCN(c3noc4ccsc34)CC2)cc1` [compound 829380], the affinity, expressed as Ki, was 26.9 nM.

`CC(=O)c1cccc(NC(=O)NCCCCN2CCN(c3noc4ccsc34)CC2)c1` [compound 829381] displayed an inhibition constant Ki of 46.5 nM. This Ki lies about 1.7-fold higher than the previous one.

In the case of `CCOc1ccc(NC(=O)NCCCCN2CCN(c3noc4ccsc34)CC2)cc1` [compound 829382], affinity was put at a Ki of 42.7 nM.

With `N#Cc1cccc(NC(=O)NCCCCN2CCN(c3noc4ccsc34)CC2)c1` [compound 829383], the Ki worked out at 102 nM.

`COc1cc(NC(=O)NCCCCN2CCN(c3noc4ccsc34)CC2)cc(OC)c1OC` [compound 829384] had an inhibition constant (Ki) of 190 nM.

`O=C(NCCCCN1CCN(c2noc3ccsc23)CC1)Nc1cc(C(F)(F)F)ccc1F` [compound 829385] had a Ki of 142 nM.

`O=C(NCCCCN1CCN(c2noc3ccsc23)CC1)Nc1ccc(F)c(C(F)(F)F)c1` [compound 829387] came in with a Ki of 114 nM.

In turn, `O=C(NCCCCN1CCN(c2noc3ccsc23)CC1)Nc1ccc(F)cc1` [compound 829388] returned a Ki of 44 nM.

Regarding `O=C(NCCCCN1CCN(c2noc3ccsc23)CC1)Nc1ccc(Cl)c(Cl)c1` [compound 829389], the inhibitory constant (Ki) stood at 50.5 nM.

For `O=C(NCCCCN1CCN(c2noc3ccsc23)CC1)Nc1ccc(Cl)cc1` [compound 829390], the affinity, expressed as Ki, was 37.5 nM.

`O=C(NCCCCN1CCN(c2noc3ccsc23)CC1)Nc1ccc(Cl)cc1C(F)(F)F` [compound 829392] returned an inhibitory constant (Ki) of 487 nM.

Molecule `O=C(NCCCCN1CCN(c2noc3ccsc23)CC1)Nc1ccccc1F` [compound 829393] yielded an inhibition constant (Ki) of 190 nM. Against the preceding molecule, the Ki is about 2.6-fold lower.

Take `O=C(NCCCCN1CCN(c2noc3ccsc23)CC1)Nc1cccc(F)c1` [compound 829394]: affinity was put at a Ki of 77.1 nM.

`O=C(NCCCCN1CCN(c2noc3ccsc23)CC1)Nc1cccc(C(F)(F)F)c1` [compound 829395] had a Ki of 148 nM.

`COc1ccc(NC(=O)NCCCCN2CCN(c3noc4ccsc34)CC2)cc1` [compound 829396] had a Ki of 121 nM.

Molecule `O=C(NCCCCN1CCN(c2noc3ccsc23)CC1)Nc1ccc(Br)cc1` [compound 829397] showed a Ki of 86.6 nM.

As for `COc1cccc(NC(=O)NCCCCN2CCN(c3noc4ccsc34)CC2)c1` [compound 829398], the Ki is 44.1 nM.

With `CC(C)c1ccc(NC(=O)NCCCCN2CCN(c3noc4ccsc34)CC2)cc1` [compound 829407], the inhibition constant (Ki) stood at 452 nM.

`O=C(NCCCCN1CCCN(c2noc3ccsc23)CC1)Nc1cccc(Cl)c1` [compound 829409] displayed a Ki of 379 nM.

`O=C(NCCCCN1CCCN(c2noc3ccsc23)CC1)Nc1ccc(C(F)(F)F)cc1` [compound 829411] had a Ki of 670 nM.

For the molecule `O=C(NCCCCN1CCCN(c2noc3ccsc23)CC1)Nc1cc(C(F)(F)F)cc(C(F)(F)F)c1` [compound 829414], the inhibitory constant (Ki) was 546 nM. This Ki and that of the molecule before are within 1.5-fold of each other.

The molecule `O=C(NCCCCN1CCCN(c2noc3ccsc23)CC1)Nc1cc(C(F)(F)F)ccc1Cl` [compound 829415] displayed a Ki of 345 nM.

Take `O=C(NCCCCN1CCCN(c2noc3ccsc23)CC1)Nc1ccc(Cl)c(C(F)(F)F)c1` [compound 829416]: the affinity, expressed as Ki, was 327 nM.

For the molecule `O=C(NCCCCN1CCCN(c2noc3ccsc23)CC1)Nc1cc(F)ccc1F` [compound 829417], the Ki is 338 nM.

As to `O=C(NCCCCN1CCCN(c2noc3ccsc23)CC1)Nc1cc(Cl)cc(Cl)c1` [compound 829418], affinity was put at a Ki of 52.9 nM.

In turn, `Cc1ccc(NC(=O)NCCCCN2CCCN(c3noc4ccsc34)CC2)cc1` [compound 829419] gave an inhibition constant (Ki) of 138 nM.

`CSc1ccc(NC(=O)NCCCCN2CCCN(c3noc4ccsc34)CC2)cc1` [compound 829420] registered a Ki of 233 nM. Against the preceding molecule, the Ki is about 1.7-fold higher.

`CC(=O)c1cccc(NC(=O)NCCCCN2CCCN(c3noc4ccsc34)CC2)c1` [compound 829421] yielded a Ki of 173 nM.

The molecule `CC(C)c1ccc(NC(=O)NCCCCN2CCCN(c3noc4ccsc34)CC2)cc1` [compound 829422] came in with an inhibitory constant (Ki) of 466 nM.

`O=C(NCCCCN1CCCN(c2noc3ccsc23)CC1)Nc1cc(C(F)(F)F)ccc1F` [compound 829425] registered a Ki of 539 nM. This Ki and that of the molecule before are within 1.5-fold of each other.

For `O=C(NCCCCN1CCCN(c2noc3ccsc23)CC1)Nc1ccc(F)c(C(F)(F)F)c1` [compound 829427], the inhibition constant Ki was found to be 459 nM.

In turn, `O=C(NCCCCN1CCCN(c2noc3ccsc23)CC1)Nc1ccc(F)cc1` [compound 829428] returned a Ki of 747 nM.

In turn, `O=C(NCCCCN1CCCN(c2noc3ccsc23)CC1)Nc1ccc(Cl)c(Cl)c1` [compound 829429] yielded an inhibitory constant (Ki) of 111 nM.

The molecule `O=C(NCCCCN1CCCN(c2noc3ccsc23)CC1)Nc1cccc(F)c1` [compound 829431] returned a Ki of 153 nM.
